According to patent US4207326A, “Antimicrobial quaternary pyrazole derivatives” (Cilag-Chemie A.G., priority 1979, dated 1980):
Values after ≈ are worked out from the molar mass of the structure shown. Where two headings read alike, the source gives them in different places.

What was measured:
[1] = tested on: P. mirabilis; assay: Antibacterial activity: Minimum Inhibitory Concentration; assay type: cell-based, Proteus mirabilis NCTC 8559; details: P. mirabilis, 37° C., 24 hours
Description: (§1) The antimicrobial activity was determined by inoculation of the test microorganism into suitable growth media containing solutions of the compounds at concentrations of 100, 50, 10, 5, 1.0, 0.5 and 0.1 μg/ml. The reference antibiotics used were Gentamicin for the antibacterial tests and Amphotericin B for the antimycotic and antifungal tests. After incubation the antimicrobial activity was recorded as the Minimal Inhibitory Concentration (M.I.C.), i.e., the lowest concentration preventing macroscopically visible growth, for each test compound against each organism.
(§2) An initial solution of each formula (I) compound to be tested in sterile distilled water was prepared at a concentration of 1000 μg/ml. With appropriate dilutions using sterile distilled water, additional solutions were prepared at concentrations of 500, 100, 50, 10, 5 and 1 μg/ml.
(§3) They were cultured and maintained on Tryptone Soy Agar (Oxoid CM 131), with the addition of 10% horse blood for the S. pyogenes.
(§4) To prepare the organisms as inocula for the test, slopes of this medium were streaked with the organisms and incubated at 37° C. for 24 hours. 4.5 Ml volumes of Brian-Heart Infusion Broth (Oxoid CM 225) were then inoculated with a platinum loop from the agar slope cultures and incubated for 24 hours at 37° C. The final inocula were then prepared by adding 0.1 ml aliquots of the Brain-Heart Infusion Broth cultures to 100 ml volumes of sterile physiological saline.
(§5) (a) For the test on each of the bacterial strains and each of the test and reference compounds, a series of 8 tubes containing 4.5 ml volumes of Brain-Heart Infusion Broth (Oxoid CM 225) were prepared. To 7 of these were added 0.5 ml volumes of the final solutions of the test compouns, giving final concentrations in the broths of 100, 50, 10, 5, 1.0, 0.5 and 0.1 μg/ml. To the eighth tube in each series was added 0.5 ml of the solvent used and diluted as for the preparation of the 1000 μg/ml solution of the compound. This tube was used as the growth control. The tubes were inoculated with 0.02 ml aliquots of the inocula prepared in accordance with "(a) Bacteria" above, and incubated at 37° C. for 24 hours. The tubes were then examined for evidence of bacterial growth as shown by turbidity of the medium and the lowest concentration of the test compound which prevented bacterial growth was recorded as the Minimal Inhibitory Concentration. This test procedure was carried out on two separate days.

[2] = tested on: E. coli; assay: as above; assay type: cell-based, Escherichia coli ATCC 8739; details: 24 hours
Description: as §1, §2, §3, §4, §5

[3] = tested on: S. pyogenes; assay: as above; assay type: cell-based, Streptococcus pyogenes NCTC 8198; details: 24 hours
Description: as §1, §2, §3, §4, §5

[4] = tested on: P. aeruginosa; assay: as above; assay type: cell-based, Pseudomonas aeruginosa ATCC 9027; details: P. aeruginosa, 37° C., 24 hours
Description: as §1, §2, §3, §4, §5

[5] = tested on: S. aureus; assay: as above; assay type: cell-based, Staphylococcus aureus ATCC 6538; details: 24 hours
Description: as §1, §2, §3, §4, §5

[6] = tested on: S. schenkii; assay: Antifungal activity: Minimum Inhibitory Concentration; assay type: cell-based, Sporotrichon schenkii NCPF 3182
Description: as §1, §2
(§6) The A. corymbifera, A. fumigatus, S. schenkii, T. rubrum, T. mentagrophytes, M. canis and P. verrucosa strains were all maintained on Sabouraud-Dextrose Agar (Oxoid CM 41) by incubating for 14 days at 27° C. To prepare the inocula 30 ml volumes of Sabouraud-Liquid medium (Oxoid CM 147) were inoculated from the agar cultures and incubated at 27° C. until heavy uniform growth resulted. The mycelial growth was then broken up by shaking with glass beads.
(§7) 1 Ml aliquots were removed from each of the cultures for the purpose of making viable counts and the cultures were then held at 4° C. The viable counts were made by preparing serial ten-fold dilutions of the cultures in sterile physiological saline and spreading on plates of Sabouraud-Dextrose Agar (Oxoid CM 41) which were then incubated at 27° C. for 14 days. When the viable counts had confirmed that each of the inocula contained approximately 10^6 colony forming units (C.F.U.) per ml the cultures were withdrawn from the refrigerator and used as the inocula for the tests.
(§8) (c) For the tests on each of the remaining seven strains and each of the test and reference compounds, a series of 8 tubes containing 4.5 ml volumes of Sabouraud-Liquid Medium (Oxoid CM 147) were prepared. To 7 of these were added 0.5 ml volumes of the final solutions of the test compounds, giving final concentrations in the broths of 100, 50, 10, 5, 1.0, 0.5 and 0.1 μg/ml. To the eighth tube in each series was added 0.5 ml of the solvent used and diluted as for the preparation of the 500 μg/ml solution of the compound. This tube was used as a growth control. The tubes were then inoculated with 0.1 ml aliquots of the inocula prepared as in "(b) Fungi" above. The tubes were then incubated at 27° C. with continuous shaking for a period of one week. The tubes were then examined for evidence of growth as shown by the presence of mycelial growth in the medium and the lowest concentration of the test compound which prevented fungal growth was recorded as the Minimal Inhibitory Concentration. This test procedure was carried out on two separate days.

[7] = tested on: T. mentagrophytes; assay: as above; assay type: cell-based, Trichophyton mentagrophytes NCPF 410
Description: as §1, §2
T. mentagrophytes NCPF 410
as §6, §7, §8

[8] = tested on: A. corymbifera; assay: as above; assay type: cell-based, Absidia corymbifera NCPF 2001
Description: as §1, §2
A. corymbifera NCPF 2001
as §6, §7, §8

[9] = tested on: C. neoformans; assay: Antimycotic activity: Minimum Inhibitory Concentration; assay type: cell-based, Cryptococcus neoformans NCPF 3184; details: Cryptococcus neoformans, pH 5.5, 30° C., 72 hours
Description: as §1, §2
The C. neoformans was also maintained on Sabouraud-Dextrose Agar (Oxoid CM 41), but in this case cultures for the preparation of the inoculum were incubated on this agar at 30° C. for 48 hours. A 4.5 ml volume of citric acid-phosphate buffer pH 5.5 plus Yeast-Nitrogen Base (Difco-0392-15) was then inoculated from the agar culture and incubated at 30° C. for 48 hours. A 0.1 ml aliquot of this culture was then added to 100 ml sterile physiological saline to give the final inoculum.
(§9) (b) For the tests on each of the C. albicans, C. tropicalis and C. neoformans strains and each of the test and reference compounds, a series of 8 tubes containing 4.5 ml volumes of citric acid-phosphate buffer pH 5.5 plus Yeast-Nitrogen Base (Difco 0392-15) were prepared. To 7 of these were added 0.5 ml volumes of the final solutions of the test compounds, giving final concentrations in the broths of 100, 50, 10, 5, 1.0, 0.5 and 0.1 μg/ml. To the eighth tube in each series was added 0.5 ml of the solvent used and diluted as for the preparation of the 1000 μg/ml solution of the compound. This tube was used as the growth control. The tubes were then inoculated with 0.1 ml aliquots of the inocula prepared as in "(b) Fungi" above. The tubes inoculated with the C. albicans and C. tropicalis were inoculated at 37° C. for 72 hours and the tubes inoculated with the C. neoformans straim were incubated at 30° C. for 72 hours. […] The tubes were then examined for evidence of growth as shown by turbidity of the medium and the lowest concentration of the test compound which prevented fungal growth was recorded as the Minimal Inhibitory Concentration. This test procedure was carried out on two separate days.

[10] = tested on: M. canis; assay: Antifungal activity: Minimum Inhibitory Concentration; assay type: cell-based, Microsporum canis NCPF 351
Description: as §1, §2, §6, §7, §8

[11] = tested on: P. verrucosa; assay: as above; assay type: cell-based, Phialophore verrucosa NCPF 1119
Description: as §1, §2, §6, §7, §8

[12] = tested on: A. fumigatus; assay: as above; assay type: cell-based, Aspergillus fimigatus (A. fumigatus) NCPF 2140
Description: as §1, §2, §6, §7, §8

[13] = tested on: T. rubrum; assay: as above; assay type: cell-based, Trichophyton rubrum NCPF 197
Description: as §1, §2, §6, §7, §8

[14] = tested on: C. albicans; assay: Antimycotic activity: Minimum Inhibitory Concentration; assay type: cell-based, Candida albicans ATCC 10231
Description: as §1, §2
(§10) The two species, C. albicans and C. tropicalis, were maintained on Sabouraud-Dextrose Agar (Oxoid CM41) and cultures for the preparation of the inoculum were incubated on this agar at 37° C. for 48 hours. 4.5 Ml volumes of citric acid-phosphate buffer pH 5.5 plus Yeast-Nitrogen Base (Difco 0392-15) were then inoculated from the agar cultures and incubated at 37° C. for 48 hours. 0.1 Ml aliquots of these cultures were then added to 100 ml volumes of sterile physiological saline to give the final inocula.
as §9

[15] = tested on: C. tropicalis; assay: as above; assay type: cell-based, Candida tropicalis NCPF 3111; details: Candida tropicalis, pH 5.5, 37° C., 72 hours
Description: as §1, §2, §10, §9

Molecule: Gentamicin [reference compound]
- Minimum Inhibitory Concentration ([1]; Day 1): 5 µg/mL
- Minimum Inhibitory Concentration ([1]; Day 2): 5 µg/mL
- Minimum Inhibitory Concentration ([2]; Day 1, 37° C.): 10 µg/mL
- Minimum Inhibitory Concentration ([2]; Day 2, 37° C.): 10 µg/mL
- Minimum Inhibitory Concentration ([3]; Day 1, 37° C.): 0.5 µg/mL
- Minimum Inhibitory Concentration ([3]; Day 2, 37° C.): 0.5 µg/mL
- Minimum Inhibitory Concentration ([4]; Day 1): 1 µg/mL
- Minimum Inhibitory Concentration ([4]; Day 2): 1 µg/mL
- Minimum Inhibitory Concentration ([5]; Day 1, 37° C.): 0.5 µg/mL
- Minimum Inhibitory Concentration ([5]; Day 2, 37° C.): 0.5 µg/mL

Molecule: C[C@@H]1[C@H](O)[C@@H](C)/C=C/C=C/C=C/C=C/C=C/C=C/C=C/[C@H](O[C@@H]2O[C@H](C)[C@@H](O)[C@H](N)[C@@H]2O)C[C@@H]2O[C@](O)(C[C@@H](O)C[C@@H](O)[C@H](O)CC[C@@H](O)C[C@@H](O)CC(=O)O[C@H]1C)C[C@H](O)[C@H]2C(=O)O [Amphotericin B, reference compound]
- Minimum Inhibitory Concentration ([6]; S. schenkii, Day 2, 27° C., one week): 50 µg/mL
- MIC ([6]; read-out: Minimum Inhibitory Concentration): 50 µg/mL (≈ 54.1 µM)
- Minimum Inhibitory Concentration ([7]; T. mentagrophytes, Day 1, 27° C., one week): 50 µg/mL
- MIC ([7]; Trichophyton mentagrophytes, read-out: Minimum Inhibitory Concentration): 50 µg/mL (≈ 54.1 µM)
- Minimum Inhibitory Concentration ([8]; A. corymbifera, Day 2, 27° C., one week): 5 µg/mL
- MIC ([8]; Lichtheimia corymbifera, read-out: Minimum Inhibitory Concentration): 5 µg/mL (≈ 5.41 µM)
- MIC ([9]; pH 5.5, read-out: Minimum Inhibitory Concentrations, C. neoformans, Day 1): 1 µg/mL (≈ 1.08 µM)
- MIC ([9]; pH 5.5, read-out: Minimum Inhibitory Concentrations, C. neoformans, Day 2): 0.5 µg/mL (≈ 0.541 µM)
- Minimum Inhibitory Concentration ([10]; M. canis, Day 2, 27° C., one week): 1 µg/mL
- MIC ([10]; Microsporum canis, read-out: Minimum Inhibitory Concentration): 1 µg/mL (≈ 1.08 µM)
- Minimum Inhibitory Concentration ([11]; P. verrucosa, Day 2, 27° C., one week): 10 µg/mL
- MIC ([11]; Phialophora verrucosa, read-out: Minimum Inhibitory Concentration): 10 µg/mL (≈ 10.8 µM)
- Minimum Inhibitory Concentration ([12]; A. fumigatus, Day 2, 27° C., one week): 5 µg/mL
- MIC ([12]; Aspergillus fumigatus, read-out: Minimum Inhibitory Concentration): 5 µg/mL (≈ 5.41 µM)
- Minimum Inhibitory Concentration ([13]; T. rubrum, Day 2, 27° C., one week): 50 µg/mL
- MIC ([13]; Trichophyton rubrum, read-out: Minimum Inhibitory Concentration): 50 µg/mL (≈ 54.1 µM)
- Minimum Inhibitory Concentrations ([14]; C. albicans, Day 2, pH 5.5, 37° C., 72 hours): 1 µg/mL
- MIC ([14]; Candida albicans, pH 5.5, read-out: Minimum Inhibitory Concentrations): 1 µg/mL (≈ 1.08 µM)
- MIC ([15]; pH 5.5, read-out: Minimum Inhibitory Concentrations, C. tropicalis, Day 1): 1 µg/mL (≈ 1.08 µM)
- MIC ([15]; pH 5.5, read-out: Minimum Inhibitory Concentrations, C. tropicalis, Day 2): 1 µg/mL (≈ 1.08 µM)
